Laboratory results as given in the CheMixHub viscosity set.
± gives the uncertainty stated by the source.

Assay: xn = mol fraction of the nth substance listed

CC(C)(C)O + CO
303.2 K, 101.33 kPa
Conditions	viscosity [mPa·s]
x2 = 0.05	3.285 ± 0.026
x2 = 0.1	3.166 ± 0.025
x2 = 0.15	3 ± 0.024
x2 = 0.2	2.806 ± 0.023
x2 = 0.3	2.4 ± 0.019
x2 = 0.4	2.016 ± 0.016
x2 = 0.5	1.649 ± 0.014
x2 = 0.6	1.36 ± 0.011
x2 = 0.7	1.069 ± 0.009
x2 = 0.8	0.842 ± 0.007
x2 = 0.85	0.746 ± 0.007
x2 = 0.9	0.658 ± 0.006
x2 = 0.95	0.574 ± 0.005

Nc1ccccc1 + CO
298.15 K, 101 kPa
Conditions	viscosity [mPa·s]
x1 = 0.0473	0.5608 ± 0.0054
x1 = 0.1001	0.5768 ± 0.0056
x1 = 0.1604	0.6103 ± 0.0058
x1 = 0.2292	0.6583 ± 0.0062
x1 = 0.3082	0.7229 ± 0.0068
x1 = 0.4007	0.8404 ± 0.0078
x1 = 0.5096	1.023 ± 0.0093
x1 = 0.6406	1.322 ± 0.012
x1 = 0.8005	1.867 ± 0.017

COCCOCCOCCOC + COC(=O)OC
298.15 K, 101.33 kPa
Conditions	viscosity [mPa·s]
x1 = 0.0029	0.592 ± 0.006
x1 = 0.0133	0.606 ± 0.006
x1 = 0.0209	0.618 ± 0.006
x1 = 0.0436	0.651 ± 0.006
x1 = 0.0642	0.679 ± 0.007
x1 = 0.0947	0.721 ± 0.007
x1 = 0.1187	0.753 ± 0.007
x1 = 0.1459	0.792 ± 0.007
x1 = 0.1856	0.846 ± 0.008
x1 = 0.2147	0.888 ± 0.008
x1 = 0.2593	0.953 ± 0.008
x1 = 0.3084	1.026 ± 0.009
x1 = 0.3099	1.025 ± 0.009
x1 = 0.3614	1.099 ± 0.009
x1 = 0.4011	1.157 ± 0.01
x1 = 0.4433	1.221 ± 0.01
x1 = 0.5005	1.303 ± 0.011
x1 = 0.5659	1.396 ± 0.011
x1 = 0.6004	1.449 ± 0.012
x1 = 0.6515	1.524 ± 0.012
x1 = 0.6923	1.585 ± 0.013
x1 = 0.7622	1.673 ± 0.013
x1 = 0.815	1.74 ± 0.014
x1 = 0.8324	1.76 ± 0.014
x1 = 0.9158	1.86 ± 0.014
x1 = 0.9541	1.899 ± 0.015

CC(C)(C)O + COC(C)(C)C
101.33 kPa
Conditions	viscosity [mPa·s]
303.15 K, x2 = 0.0443	2.726 ± 0.061
303.15 K, x2 = 0.0877	2.236 ± 0.051
303.15 K, x2 = 0.1262	1.894 ± 0.044
303.15 K, x2 = 0.1702	1.587 ± 0.037
303.15 K, x2 = 0.2519	1.192 ± 0.029
303.15 K, x2 = 0.2645	1.146 ± 0.028
303.15 K, x2 = 0.3232	0.9699 ± 0.024
303.15 K, x2 = 0.3619	0.8794 ± 0.022
303.15 K, x2 = 0.4504	0.7203 ± 0.019
303.15 K, x2 = 0.5434	0.5955 ± 0.016
303.15 K, x2 = 0.5686	0.5668 ± 0.015
303.15 K, x2 = 0.6631	0.4759 ± 0.013
303.15 K, x2 = 0.7872	0.3997 ± 0.012
303.15 K, x2 = 0.8887	0.3669 ± 0.011
303.15 K, x2 = 0.9442	0.3487 ± 0.011
313.15 K, x2 = 0.048	1.742 ± 0.041
313.15 K, x2 = 0.0499	1.73 ± 0.041
313.15 K, x2 = 0.0796	1.556 ± 0.037
313.15 K, x2 = 0.092	1.491 ± 0.036
313.15 K, x2 = 0.1717	1.149 ± 0.029
313.15 K, x2 = 0.2531	0.9105 ± 0.024
313.15 K, x2 = 0.267	0.878 ± 0.023
313.15 K, x2 = 0.3697	0.6901 ± 0.02
313.15 K, x2 = 0.4552	0.5827 ± 0.018
313.15 K, x2 = 0.5678	0.4803 ± 0.017
313.15 K, x2 = 0.6723	0.4109 ± 0.016
313.15 K, x2 = 0.7688	0.3634 ± 0.015
313.15 K, x2 = 0.8802	0.3241 ± 0.015
313.15 K, x2 = 0.9456	0.305 ± 0.015

COCCOCCOCCOC + COC(C)=O
viscosity [mPa·s], 101.3 kPa
Conditions	298.15 K	308.15 K	318.15 K
x1 = 0.022	0.398 ± 0.006	0.352 ± 0.006	0.33 ± 0.006
x1 = 0.0473	0.424 ± 0.007	0.378 ± 0.006	0.352 ± 0.006
x1 = 0.0717	0.455 ± 0.007	0.404 ± 0.007	0.373 ± 0.006
x1 = 0.1255	0.527 ± 0.008	0.465 ± 0.007	0.425 ± 0.007
x1 = 0.1838	0.61 ± 0.009	0.534 ± 0.008	0.478 ± 0.007
x1 = 0.2145	0.649 ± 0.009	0.561 ± 0.008	0.512 ± 0.008
x1 = 0.236	0.676 ± 0.009	0.58 ± 0.008	0.528 ± 0.008
x1 = 0.2557	0.709 ± 0.01	0.616 ± 0.009	0.549 ± 0.008
x1 = 0.3143	0.802 ± 0.011	0.687 ± 0.01	0.611 ± 0.009
x1 = 0.4027	0.943 ± 0.013	0.802 ± 0.011	0.699 ± 0.01
x1 = 0.4806	1.07 ± 0.014	0.905 ± 0.012	0.783 ± 0.011
x1 = 0.5743	1.234 ± 0.016	1.031 ± 0.014	0.883 ± 0.012
x1 = 0.6289	1.326 ± 0.017	1.1 ± 0.014	0.942 ± 0.013
x1 = 0.6511	1.367 ± 0.018	1.13 ± 0.015	0.964 ± 0.013
x1 = 0.7138	1.474 ± 0.019	1.215 ± 0.016	1.031 ± 0.014
x1 = 0.7667	1.566 ± 0.02	1.286 ± 0.017	1.086 ± 0.014
x1 = 0.7792	1.593 ± 0.02	1.308 ± 0.017	1.1 ± 0.014
x1 = 0.8702	1.743 ± 0.022	1.426 ± 0.018	1.195 ± 0.016
x1 = 0.9014	1.805 ± 0.023	1.472 ± 0.019	1.225 ± 0.016
x1 = 0.9571	1.891 ± 0.024	1.548 ± 0.02	1.278 ± 0.017
x2 = 0.0137	1.936 ± 0.024	1.584 ± 0.02	1.306 ± 0.017
